Data as given in EP0569777A2 (Bayer Corporation, priority 1992, dated 1993).
Where a SMILES comes first, the peptide text is derived from it. [ ]: non-standard residue; d: D form. The star is where a group is joined. Sta = CC(C)C[C@H](N)[C@@H](O)CC(=O)O; Isovaleryl = CC(C)CC(=O)*

Tested on: human brain P-2 derived aprotinin binding pool Y protease (chymotryptic-like serine protease)
Test: Immunoblot assay of APP degradation by the pool Y serine protease
Assay type: biochemical
Conditions: 400 uM pepstatin in methanol; pool Y 14 ug/ml, APP 35 nM, Mes pH 6.5, 4 hr; Figure 18a
Procedure: Reactions were initiated at 37°C by enzyme addition to achieve the following initial component concentrations in a 16 ul volume: pool Y # 3-5 (14 ug/ml) after purification on a superdex 75 column, APP (35 nM), in 30 mM Mes buffer pH 6.5. Reactions were terminated by addition of 7.5 ul of 3X sample buffer. Immunoblots were developed using the rabbit antiserum to the APP C-terminal domain according to example 8. […] The following controls were also run: no inhibitor (lane 12), ethanol (lane 3), methanol (lane 5), pool Y only (lane 2), APP only at time zero (lane 13) and 4 hr (lane 14). Lanes 1 and 7 respectively show prestained Mr markers and the C-100 standard. Panel (b) 1.8 uM alpha-1-antichymotrypsin (lane 2), 156 uM TLCK (lane 3), 46 uM chymotrypsin inhibitor I (lane 4), 119 uM chymotrypsin inhibitor II (lane 5), 4 uM alpha-2-antiplasmin (lane 6), 51 uM alpha-1-antitrypsin (lane 7), 98 uM chymostatin administered in DMSO (lane 10), 153 uM methanolic TPCK (lane 12). Controls included: no inhibitor (lane 8), DMSO (lane 11), and methanol (lane 13). Pre-stained molecular weight markers and C-100 standards were applied to lanes 1 and 9 respectively. Incubation times of 4 and 2 hr were used in panels a) and b) respectively.
• i) Sub-cellular fractionation. This was performed essentially as described in Method 1, above. • ii) Solubilization. This was performed essentially as described in Method 1, above. • iii) Aprotinin-sepharose chromatography. Soluble (230 mg), P-2 (216 mg) or microsomal fraction (47 mg) described above was applied to a column of aprotinin sepharose (Sigma, catalog # 42268, 1.5 X 10 cm), previously equilibrated with 20 mM Tris HCl buffer pH 7.0. Once loaded the column was washed with equilibration buffer (100 ml), and then eluted with 60 ml of 50 mM sodium acetate buffer pH 5.0 containing 500 mM sodium chloride. The flow rate was 1.0 ml/min throughout. Eluted fractions (4 ml) were monitored at 280 nm, analysed using the Bradford protein assay, and examined for APP C-terminal processing activity as described in Example 8, using recombinant APP derived by expression in a baculo virus system. […] Active fractions from the purification of the P-2 fraction on aprotinin-sepharose were pooled, dialyzed against 50 mM Tris-HCl pH 7.5 and applied to a mono-Q column (HR 5/5), previously equilibrated with dialysis buffer. Once loaded, the column was eluted essentially as described in Method 1. above. Active fractions (2 ml), were monitored for A 280 nm, total protein (Bradford assay), and for their capacity for baculo virus derived APP C-terminal processing. […] Pools X, Y, and Z were each concentrated to either 2 ml (pool X and Y) or 3.6 ml (pool z) and separately applied to a Superdex 75 column (Pharmacia, Piscataway NJ.) previously equilibrated with 50 mM Tris-HCl pH 7.5, containing 150 mM sodium chloride. Once loaded, the column was eluted with equilibration buffer. Chromatography was performed at a flow rate of 1.0 ml/min throughout. Fractions (1 ml) were monitored for A 280 nm, total protein (Bradford assay) and for C-terminal processing of baculo expressed APP. The gel filtration was calibrated by chromatography of each of the following standard proteins: Thyroglobulin (670 kDa), bovine gamma globulin (158 kDa), ovalbumin (44 kDa), myoglobin (17.5 kDa) and vitamin B 12 (1.35 kDa).

CC(C)CC(=O)N[C@H](C(=O)N[C@H](C(=O)N[C@@H](CC(C)C)[C@@H](O)CC(=O)N[C@@H](C)C(=O)N[C@@H](CC(C)C)[C@@H](O)CC(=O)O)C(C)C)C(C)C [pepstatin A] (Isovaleryl-VV[Sta]A[Sta]-OH)
Inhibitor sensitivity of the pool Y protease (APP degradation): unaffected
